Reference: patent publication US20230067910A1, “NOVEL COMPOUNDS FOR THE DIAGNOSIS, TREATMENT AND PREVENTION OF DISEASES ASSOCIATED WITH THE AGGREGATION OF ALPHA-SYNUCLEIN” (MODAG GMBH, priority 2019, published 2023)

The compounds below were run against T1, alpha-synuclein (sonicated fibrils) (Homo sapiens, UniProt P37840) (assay: Modified competition binding assay, protocol 3b, reference ligand [3H]-compound 2). Details: Table 5, reference ligand [3H]-compound 2 (1 nM).
T1 construct: made in house; host or cells: E. coli
Description: Alpha-synuclein and tau46 were purified from E. coli according to established protocols (Nuscher B, et al., J. Biol. Chem., 2004; 279(21):21966-75), Aβ1-42 was obtained from rPeptide, Watkinsville, Ga., USA. Fibrils were prepared by aggregation of recombinant protein via constant agitation. In detail, 70 μM of alpha-synuclein mixed with 100 mM NaCl in 50 mM Tris, pH 7.0+0.02% NaN3 were incubated at 1,400 rpm, 37° C. for 96 h. 10 μM of tau46 were incubated with 0.03 mg/ml heparin in 50 mM Tris, pH=7.0 at 1,000 rpm, 37° C. for 72 h. Aβ1-42 was solved in 20 mM NaPi, pH=8.0+0.2 mM EDTA+0.02% NaN3 (Deeg A A, et al., Biochim. Biophys. Acta, 2015; 1850(9): 1884-90; Goedert M, et al. Nature, 1996; 383(6600): 550-3).
For competition binding experiments, a fixed concentration of recombinant αSYN fibrils (sonicated, 15 nM/well) was incubated with 1 nM [^3H]-compound 1 or [3H]-compound 2 and decreasing concentrations of a serial dilution of non-labeled competitor (serial dilution 1:4 or 1:3.5 or 1:3 providing the concentration ranges of non-labeled competitor 1 μM-[…] 1 μM-4 nM or 1 μM-[…], respectively) in 30 mM Tris-HCl, 10% ethanol, 0.05% Tween20, pH 7.4 in a total volume of 200 μL/well. Plates were incubated for 4.5 hours at RT covered by removable sealing tape (PerkinElmer, Waltham, Mass., USA).
Filtration and readout were performed as described for saturation binding assays. [^3H]-labeled ligand binding [in CMP] was plotted against increasing competitor concentrations and data points were fitted using non-linear regression analysis to calculate the IC50 and Ki values (GraphPad Software, Inc., Version 7.03, La Jolla (Calif.), USA). In the competition binding assay with sonicated recombinant αSYN fibrils, the calculation of Ki values was done based on KD values of 0.6 nM and 0.2 nM for compound 1 and compound 2, respectively.
The fibril competition assay provides Ki values. Ki is a quantitative measure that represents the concentration of the non-radioactive tested compound (competitor ligand) required to replace 50% of a reference compound, in this case [H]-compound 1 (1 nM) or [H]-compound 2 (1 nM), which is bound to the target structures (1 nM), in our case recombinant alpha-synuclein and tau46 fibrils. This assay is suitable for a screening of non-radioactive ligands.
`CN(C)c1ccc(-c2c[nH]c(-c3ccnc(Br)c3)n2)cc1` [Compound 31, 4-[2-(2-bromopyridin-4-yl)-1H-imidazol-4-yl]-N,N-dimethylaniline] gave a Ki of 13 nM.
For `CN1CCN(c2ccc(-c3cc(-c4ccnc(Br)c4)[nH]n3)cc2)CC1` [Compound 26, 1-{4-[5-(2-bromopyridin-4-yl)-1H-pyrazol-3-yl]phenyl}-4-methylpiperazine], the Ki was 1 nM.
In the case of `FCCN1CCN(c2ccc(-c3cc(-c4ccnc(Cl)c4)[nH]n3)cc2)CC1` [Compound 50, 1-{4-[5-(2-chloropyridin-4-yl)-1H-pyrazol-3-yl]phenyl}-4-(2-fluoroethyl)piperazine], the Ki is reported as 0.9 nM.
`CN(C)c1ccc(-c2cc(-c3cc(Cl)ncn3)[nH]n2)cc1` [Compound 43, 4-[5-(6-chloropyrimidin-4-yl)-1H-pyrazol-3-yl]-N,N-dimethylaniline] showed a Ki of 0.5 nM.
For “6-[5-(2-bromopyridin-4-yl)-1H-pyrazol-3-yl]-1,3-dioxolo[4,5-b]pyridine [Compound 32]”, the Ki was 18 nM.
Compound `CNc1ccc(-c2cc(-c3cncc(Cl)n3)[nH]n2)cc1` [Compound 36, 4-[5-(6-chloropyrazin-2-yl)-1H-pyrazol-3-yl]-N-methylaniline] has a Ki of 12 nM.
Work on `[2H]C([2H])([2H])Nc1ccc(-c2cc(-c3ccnc(Br)c3)[nH]n2)cc1` [Compound 21, 4-[5-(2-bromopyridin-4-yl)-1H-pyrazol-3-yl]-N-(^2H3)methylaniline] yielded a Ki of 0.3 nM.
Work on `Fc1cc(-c2cc(-c3ccc(N4CCOCC4)cc3)n[nH]2)ccn1` [Compound 27, 4-{4-[5-(2-fluoropyridin-4-yl)-1H-pyrazol-3-yl]phenyl}morpholine] yielded a Ki of 1.3 nM.
Work on `Fc1ccnc(-c2cc(-c3ccc4c(c3)OCO4)n[nH]2)c1` [Compound 54, 2-[3-(1,3-benzodioxol-5-yl)-1H-pyrazol-5-yl]-4-fluoropyridine] yielded a Ki of 8.4 nM.
`CN(C)c1ccc(-c2nc(-c3ccnc(Br)c3)c[nH]2)cc1` [Compound 45, 4-[4-(2-bromopyridin-4-yl)-1H-imidazol-2-yl]-N,N-dimethylaniline] gave a Ki of 0.2 nM.
`Brc1cc(-c2c[nH]c(-c3ccc4c(c3)OCO4)n2)ccn1` [Compound 29, 4-[2-(1,3-benzodioxol-5-yl)-1H-imidazol-4-yl]-2-bromopyridine] gave a Ki of 6.3 nM.
`FCCNc1ccc(-c2cc(-c3ccnc(Br)c3)[nH]n2)cc1` [Compound 25, 4-[5-(2-bromopyridin-4-yl)-1H-pyrazol-3-yl]-N-(2-fluoroethyl)aniline] was tested, and the Ki was 0.7 nM.
For “4-[5-(2,6-dichloropyridin-4-yl)-1H-pyrazol-3-yl]-N,N-dimethylaniline [Compound 42]”, the Ki was 23 nM.
`Brc1cc(-c2nc(-c3ccc4c(c3)OCO4)c[nH]2)ccn1` [Compound 33, 4-[4-(1,3-benzodioxol-5-yl)-1H-imidazol-2-yl]-2-bromopyridine] gave a Ki of 33 nM.
Compound `Clc1cc(-c2nc(-c3ccc(N4CCCC4)cc3)c[nH]2)ccn1` [Compound 35, 2-chloro-4-{4-[4-(pyrrolidin-1-yl)phenyl]-1H-imidazol-2-yl}pyridine] has a Ki of 168 nM.
Compound `Cc1cc(-c2cc(-c3ccc4c(c3)OCO4)n[nH]2)cc(Br)n1` [Compound 47, 4-[3-(1,3-benzodioxol-5-yl)-1H-pyrazol-5-yl]-2-bromo-6-methylpyridine] has a Ki of 97 nM.
With `Clc1c(-c2ccc3c(c2)OCO3)n[nH]c1-c1ccnc(Br)c1` [Compound 28, 4-[3-(1,3-benzodioxol-5-yl)-4-chloro-1H-pyrazol-5-yl]-2-bromopyridine] the Ki was 4.2 nM.
In the case of `CNc1ccc(-c2cc(-c3cccc(Cl)n3)[nH]n2)cc1` [Compound 41, 4-[5-(6-chloropyridin-2-yl)-1H-pyrazol-3-yl]-N-methylaniline], the Ki is reported as 14 nM.
`CN(C)c1ccc(-c2nc(-c3ccnc(Br)c3)n[nH]2)cc1` [Compound 44, 4-[3-(2-bromopyridin-4-yl)-1H-1,2,4-triazol-5-yl]-N,N-dimethylaniline] gave a Ki of 0.6 nM.
With `FC1CN(c2ccc(-c3cc(-c4ccnc(Cl)c4)[nH]n3)cc2)C1` [Compound 55, 2-chloro-4-{3-[4-(3-fluoroazetidin-1-yl)phenyl]-1H-pyrazol-5-yl}pyridine] the Ki was 1.2 nM.
`CNc1ccc(-c2cc(-c3cnnc(Cl)c3)[nH]n2)cc1` [Compound 39, 4-[5-(6-chloropyridazin-4-yl)-1H-pyrazol-3-yl]-N-methylaniline] was tested, and the Ki was 4.2 nM.
`Brc1cccc(-c2cc(-c3cnc4c(c3)OCO4)n[nH]2)c1` [Compound 34, 6-[5-(3-bromophenyl)-1H-pyrazol-3-yl]-1,3-dioxolo[4,5-b]pyridine] gave a Ki of 41 nM.
Compound `CNc1ccc(-c2cc(-c3ccnc(Cl)n3)[nH]n2)cc1` [Compound 40, 4-[5-(2-chloropyrimidin-4-yl)-1H-pyrazol-3-yl]-N-methylaniline] has a Ki of 3.9 nM.
In the case of `CNc1ccc(-c2cc(-c3cc(C)nc(Br)c3)[nH]n2)cc1` [Compound 38, 4-[5-(2-bromo-6-methylpyridin-4-yl)-1H-pyrazol-3-yl]-N-methylaniline], the Ki is reported as 113 nM.
With `Clc1cc(-c2cc(-c3ccc4c(c3)OCO4)n[nH]2)c(Cl)nn1` [Compound 48, 4-[5-(1,3-benzodioxol-5-yl)-1H-pyrazol-3-yl]-3,6-dichloropyridazine] the Ki was 59 nM.
For `Fc1cc(-c2cc(-c3ccc(N4CCNCC4)cc3)n[nH]2)ccn1` [Compound 49, 1-{4-[5-(2-fluoropyridin-4-yl)-1H-pyrazol-3-yl]phenyl}piperazine], the Ki was 61 nM.
In the case of `COCCN1CCN(c2ccc(-c3cc(-c4ccnc(Br)c4)[nH]n3)cc2)CC1` [Compound 51, 1-{4-[5-(2-bromopyridin-4-yl)-1H-pyrazol-3-yl]phenyl}-4-(2-methoxyethyl)piperazine], the Ki is reported as 2.7 nM.
`CN(C)c1ccc(-c2cc(-c3ccnc(Cl)c3)[nH]n2)cc1` [Compound 53, 4-[5-(2-chloropyridin-4-yl)-1H-pyrazol-3-yl]-N,N-dimethylaniline] gave a Ki of 0.8 nM.
For `Brc1cc(-c2nc(-c3ccc4c(c3)OCO4)n[nH]2)ccn1` [Compound 30, 4-[3-(1,3-benzodioxol-5-yl)-1H-1,2,4-triazol-5-yl]-2-bromopyridine], the Ki was 12 nM.
`CNc1ccc(-c2cc(-c3cc(Br)nc(Br)c3)[nH]n2)cc1` [Compound 37, 4-[5-(2,6-dibromopyridin-4-yl)-1H-pyrazol-3-yl]-N-methylaniline] was tested, and the Ki was 16 nM.
`FC1CCN(c2ccc(-c3cc(-c4ccnc(Br)c4)[nH]n3)cc2)CC1` [Compound 52, 2-bromo-4-{3-[4-(4-fluoropiperidin-1-yl)phenyl]-1H-pyrazol-5-yl}pyridine] gave a Ki of 3.1 nM.
`CNc1ccc(-c2cc(-c3ccnc(F)c3)[nH]n2)cc1` [Compound 24, 4-[5-(2-fluoropyridin-4-yl)-1H-pyrazol-3-yl]-N-methylaniline] showed a Ki of 0.8 nM.
Compound `CCNc1ccc(-c2cc(-c3ccnc(Br)c3)[nH]n2)cc1` [Compound 23, 4-[5-(2-bromopyridin-4-yl)-1H-pyrazol-3-yl]-N-ethylaniline] has a Ki of 0.5 nM.
In the case of `CNc1ccc(-c2cc(-c3ccnc(Cl)c3)[nH]n2)cc1` [Compound 22, 4-[5-(2-chloropyridin-4-yl)-1H-pyrazol-3-yl]-N-methylaniline], the Ki is reported as 0.3 nM.
